# In the supplement of paper PMC10307832:
# Experiments:
# Experiment in all cases: relative viability (nuclei count vs DMSO), 5 days (fraction); higher = more cells survive
# Palbociclib + Bortezomib = compound: CC(=O)c1c(C)c2cnc(Nc3ccc(N4CCNCC4)cn3)nc2n(C2CCCC2)c1=O [Palbociclib] + CC(C)C[C@H](NC(=O)[C@H](Cc1ccccc1)NC(=O)c1cnccn1)B(O)O [Bortezomib] (partner 0.002 µM)
# Procedure, shortened: (§1)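 Relative viability was taken as the ratio of nuclei in treated wells to nuclei in vehicle wells. Lung cancer cell lines in 1536-well plates received compounds by pin tool one day after seeding, either one drug alone or a fixed anchor-drug dose plus five library-drug doses (not always all listed) in √10 steps. Nuclei were counted on 4× images after 5 days of treatment, and values are medians of duplicate plates.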
# Palbociclib + Pictilisib = compound: CC(=O)c1c(C)c2cnc(Nc3ccc(N4CCNCC4)cn3)nc2n(C2CCCC2)c1=O [Palbociclib] + CS(=O)(=O)N1CCN(Cc2cc3nc(-c4cccc5[nH]ncc45)nc(N4CCOCC4)c3s2)CC1 [Pictilisib] (partner 1 µM)
# Procedure, shortened: as §1
# Palbociclib + Crizotinib = compound: CC(=O)c1c(C)c2cnc(Nc3ccc(N4CCNCC4)cn3)nc2n(C2CCCC2)c1=O [Palbociclib] + C[C@@H](Oc1cc(-c2cnn(C3CCNCC3)c2)cnc1N)c1c(Cl)ccc(F)c1Cl [Crizotinib] (partner 1 µM)
# Procedure, shortened: as §1
# Palbociclib + Alpelisib = compound: CC(=O)c1c(C)c2cnc(Nc3ccc(N4CCNCC4)cn3)nc2n(C2CCCC2)c1=O [Palbociclib] + Cc1nc(NC(=O)N2CCC[C@H]2C(N)=O)sc1-c1ccnc(C(C)(C)C(F)(F)F)c1 [Alpelisib] (partner 2 µM)
# Procedure, shortened: as §1
Cell Line,relative viability (Palbociclib + Bortezomib; first compound 0.01 µM),relative viability (Palbociclib + Bortezomib; first compound 0.03162 µM),relative viability (Palbociclib + Bortezomib; first compound 0.1 µM),relative viability (Palbociclib + Bortezomib; first compound 0.3162 µM),relative viability (Palbociclib + Bortezomib; first compound 1 µM),relative viability (Palbociclib + Pictilisib; first compound 0.01 µM),relative viability (Palbociclib + Pictilisib; first compound 0.03162 µM),relative viability (Palbociclib + Pictilisib; first compound 0.1 µM),relative viability (Palbociclib + Pictilisib; first compound 0.3162 µM),relative viability (Palbociclib + Pictilisib; first compound 1 µM),relative viability (Palbociclib + Crizotinib; first compound 0.01 µM),relative viability (Palbociclib + Crizotinib; first compound 0.03162 µM),relative viability (Palbociclib + Crizotinib; first compound 0.1 µM),relative viability (Palbociclib + Crizotinib; first compound 0.3162 µM),relative viability (Palbociclib + Crizotinib; first compound 1 µM),relative viability (Palbociclib + Alpelisib; first compound 0.01 µM),relative viability (Palbociclib + Alpelisib; first compound 0.03162 µM),relative viability (Palbociclib + Alpelisib; first compound 0.1 µM),relative viability (Palbociclib + Alpelisib; first compound 0.3162 µM),relative viability (Palbociclib + Alpelisib; first compound 1 µM)
EBC-1,0.468,0.445,0.353,0.281,0.193,0.366,0.241,0.202,0.178,0.183,0.193,0.165,0.195,0.17,0.18,0.786,0.774,0.573,0.409,0.184
EKVX,1.12,0.916,1.04,0.989,0.461,0.478,0.363,0.223,0.281,0.249,1.13,0.898,0.818,0.781,0.499,1.04,0.716,0.661,0.604,0.401
EMC-BAC-2,1.09,0.812,0.905,0.785,0.665,0.553,0.445,0.442,0.414,0.345,0.738,0.716,0.699,0.646,0.496,0.738,0.646,0.602,0.665,0.508
EPLC-272H,0.836,,0.792,0.883,0.512,0.377,,0.272,0.266,0.262,0.967,,0.779,0.893,0.799,1.13,,0.808,0.69,0.658
H3255,0.912,0.789,0.624,0.641,0.317,0.517,0.376,0.394,0.434,0.261,1.03,0.688,0.672,0.689,0.451,0.714,0.599,0.469,0.488,0.36
HARA,1.07,1.02,1,0.874,0.389,0.406,0.347,0.225,0.202,0.169,1.04,0.945,0.836,0.766,0.499,0.82,0.718,0.557,0.405,0.31
HCC-15,1.1,,0.929,0.833,0.737,0.71,,0.617,0.591,0.603,0.811,,0.725,0.687,0.63,0.878,,0.793,0.719,0.704
HCC-44,0.824,0.804,0.844,0.836,0.911,0.658,0.538,0.544,0.642,0.521,0.738,0.803,0.789,0.747,0.85,0.728,0.789,0.819,0.798,0.774
